# Source: paper PMC9973260, “Emergence of an Auxin Sensing Domain in Plant-Associated Bacteria” (mBio, 2023)
# Assays:
# AdmX-LBD [1] = target: T1, AdmX-LBD (Serratia plymuthica, UniProt P0DV33, C100S); assay: isothermal titration calorimetry; format: binding; settings: read-out: dissociation constant
# T1 construct: fast monomer-dimer equilibrium shifted toward dimer, dimer in crystal
# T1 sequence (P0DV33 69-295 C100S): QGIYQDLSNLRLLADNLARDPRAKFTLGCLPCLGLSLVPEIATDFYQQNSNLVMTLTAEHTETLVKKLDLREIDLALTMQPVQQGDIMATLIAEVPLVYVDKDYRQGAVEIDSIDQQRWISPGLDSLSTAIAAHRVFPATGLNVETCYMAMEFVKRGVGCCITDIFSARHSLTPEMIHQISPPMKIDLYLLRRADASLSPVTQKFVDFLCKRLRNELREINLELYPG
# AdmX-LBD [2] = target: T2, AdmX-LBD (Serratia plymuthica, UniProt P0DV33, E213Q); assay: isothermal titration calorimetry; format: binding; settings: read-out: dissociation constant
# T2 construct: fast monomer-dimer equilibrium shifted toward dimer, dimer in crystal
# T2 sequence (P0DV33 69-295 E213Q): T1 sequence (P0DV33 69-295 C100S)
Compound,Kd (AdmX-LBD [1]),Kd (AdmX-LBD [2])
O=C(O)Cc1c[nH]c2ccccc12 [indole-3-acetic acid],51 ± 3.4 µM,23.9 ± 2.4 µM
O=C(O)C(=O)Cc1c[nH]c2ccccc12 [indole-3-pyruvic acid],31.5 ± 1.6 µM,6 ± 0.7 µM
